Reference: patent US7491701B2, “Peptides that bind to HSP90 proteins” (Boys Town National Research Hospital, priority 2004, dated 2009)
Where no end group is shown, it is not given here.

How the values were obtained:
beta-COP = assay: Binding of beta-COP from mouse brain extract to Sulfolink-peptide affinity matrix, western analysis; conditions: FIG. 1B; for amount of beta-COP binding the peptide matrix: western with antibody to beta-COP; for amount of beta-COP bound by the di-serine control relative to the parent di-lysine peptide matrix: western, 672 BC1 vs OTOF CTERM E47, 670 CC1 vs OTOF CTERM E48
Description: Antibody to beta-COP was obtained from Oncogene Research Products (EMD Biosciences, Ind.) (Product No. PC175) and used at a 1:1500 dilution. Antibody to mouse Hsp90α was obtained from Stressgen (Victoria, Canada), Product No. SPS-771 and used at a 1:1000 dilution.
(§1) Sulfolink-peptide affinity columns were synthesized using the Sulpholink Kit (Pierce Biotechnology, Inc., Rockford, Ill., Product No. 44895) according to their protocol. Peptides were stored at 4° C. in a lyophilized state in a sealed desiccator. Approximately 2 mg of peptide is weighed and suspended in 0.4 ml of DMSO. This peptide solution is immediately diluted into 2 ml of coupling buffer and mixed (100 μl is removed for quantization) then added to 4 ml of a 50% slurry of Sulfolink gel equilibrated in coupling buffer in a small plastic column. The combination is mixed for 15 minutes at room temperature by rotation. The mixture is further incubated for 30 minutes at room temperature without mixing. The column is washed with coupling buffer, then blocked with freshly made 0.5 M cysteine, further washed with a Wash buffer. The peptide affinity matrix was removed from the column to a 50 ml conical tube and stored as a 50% slurry in PBS containing 0.05% sodium azide at 4° C.
Total mouse brain from deeply anthesized adult mice is excised and flash frozen in liquid nitrogen and stored at −80° C. The frozen brain is pulverized in a mortar and pestle under liquid nitrogen and suspended in TNGD (TRIS 50 mM pH7.5, NaCl 75 mM, EGTA 10 mM, EDTA 2 mM) with protease inhibitors (10 μl/ml of protease inhibitor cocktail for mammalian cells, Sigma Chemical Co. No. P8340) at 1 ml/100 mg of tissue. This mixture is homogenized in a Potter-Elvehjem Teflon glass homogenizer on ice. The homogenate is centrifuged for 10 minutes at 4° C. in an IEC minifuge at 13,200 RPM. The pellet is discarded. The supernatant is used immediately or frozen and stored at −80° C.
All steps of protein purification were done at 4° C. in a Handee Spin Cup Column (Pierce Biotechnology, Inc., Rockford, Ill., Product No. 69700) in the presence of protease inibitor (10 μl/ml of protease inhibitor cocktail for mammalian cells, Sigma Chemical Co. No. P8340). Fifty μl of a 50% slurry of Sulfolink-peptide was washed five times with 0.4 ml of TNGD. Mouse brain extract supernatant (100 μl) was allowed to absorb to the gel by mixing by rotation for 30 minutes. Following absorption the gel is washed five times with 0.4 ml TNGD. Specific elution is described in the results.
Protein samples are made 1× with ImmunoPure Lane Marker Non-Reducing Sample Buffer (5×) (Pierce Biotechnology) and heated for 5 minutes at 95° C. Samples are separated on a 4-20% Linear Gradient Ready Gel (BIO-RAD Laboratories, Hercules, Calif., Product No. 161-1105). Polyacrylamide gels are stained with BIORAD Silver Stain Plus Kit (No. 161-0449) or Bio-Safe Coomassie Stain or electro-blotted to PVDF membrane (BIO-RAD) for Western blot analysis, according to directions provided by the manufacturer. Specific antibody binding is detected using ECL Western Blotting System (Amersham Biosciences Corp., Piscataway, N.J., Product No. RPN2108). Molecular weight standards used were the BIO-RAD Precision Protein Standards, Prestained, Broad Range (Product No. 161-0372). Chemiluminecence is detected using Kodak Biomax ML Scientific Imaging Film (Product No. 868-9358).
Mouse brain extracts were absorbed to the four peptide matrix columns as described in the methods. Column matrix was transferred to PCR tubes and made 1× with SDS buffer and heated for 5 minutes at 95° C. After heating the samples were centrifuged for 1 minute at 300×g and the supernatant separated by SDS gel electrophoresis on two separate gels.

recombinant human Hsp90α = target: T1, recombinant human Hsp90α (Homo sapiens, UniProt P07900); assay: Binding of purified recombinant human Hsp90α to peptide affinity columns, 600 mM NaCl elution, silver stain; conditions: for binding of Hsp90α to the peptide affinity column: 400 ng recombinant human Hsp90α, BSA-preabsorbed column, 4° C., silver stain, FIG. 5; for protein corresponding to Hsp90 molecular weight eluted with 600 mM NaCl, share of protein added: scan of silver stained gel, elution with TNGD + 600 mM NaCl
T1 construct: purchased Stressgen SPP-776
Description: Fifty μl of 50% slurry of OTOF CTERM E47 and OTOF CTERM E48 Sulfolink affinity matrix were equilibrated with four washes of 0.4 ml of TNGD buffer in Handee Spin Cup Columns (Pierce, Rockford). The columns was preabsorbed with 100 μl of 10% BSA for 30 minutes at 4° C. and mixed by rotation. The columns were then washed five times with 0.4 ml of TNGD. Four hundred (400) ng of recombinant human Hsp90α (Stressgen SPP-776, Lot No. B201401) in 100 μl of TNGD was added to each column for 30 minutes at 4° C. and mixed by rotation. The unabsorbed protein was removed by centrifugation. The columns were washed five times with 0.4 ml of TNGD, then eluted with 100 μl TNGD+600 mM NaCl. Samples were analyzed on a 4-20% SDS-PAGE gel followed by silver staining using a BIORAD Silver Stain Plus kit (No. 161-0449) as show in FIG. 5. […] The amount of protein added and eluted was determined by scanning the silver stained gel using a Alpha Imager 2200 gel imaging system.

[1] = background; cited from earlier work
[2] = background; geldanamycin Phase I clinical trials; cited from earlier work
Hsp90α (p97, HS9A_MOUSE) = target: T2, Hsp90α (p97, HS9A_MOUSE) (Mus musculus, UniProt P07901); assay: Binding of mouse brain extract protein p97 (identified as Hsp90α) to Sulfolink-peptide affinity matrix, SDS-PAGE Coomassie stain; conditions: Coomassie stained gel, FIG. 1A
T2 construct: Total mouse brain from deeply anthesized adult mice is excised and flash frozen in liquid nitrogen; from tissue; host or cells: adult mouse brain, 13,200 rpm supernatant of homogenate
Description: as §1, with “The peptide affinity matrix was removed from the column to a 50 ml conical tube and stored as a 50% slurry in PBS containing 0.05% sodium azide at 4° C.” left out
Protein samples are made 1× with ImmunoPure Lane Marker Non-Reducing Sample Buffer (5×) (Pierce Biotechnology) and heated for 5 minutes at 95° C. Samples are separated on a 4-20% Linear Gradient Ready Gel (BIO-RAD Laboratories, Hercules, Calif., Product No. 161-1105). […] Specific antibody binding is detected using ECL Western Blotting System (Amersham Biosciences Corp., Piscataway, N.J., Product No. RPN2108). […] Chemiluminecence is detected using Kodak Biomax ML Scientific Imaging Film (Product No. 868-9358). […]

CYSLPGYLAKKILGA (also: coupled to Sulfolink matrix) [OTOF CTERM E47, C-terminus 14 amino acids of the brain otoferlin isoform with added N-terminal cysteine, coupled to Sulfolink matrix]
amount of beta-COP binding the peptide matrix (beta-COP): similar | amount of beta-COP binding the peptide matrix (beta-COP; listed as E47): specific binding | binding of Hsp90α to the peptide affinity column (recombinant human Hsp90α): does not bind | protein corresponding to Hsp90 molecular weight eluted with 600 mM NaCl, share of protein added (recombinant human Hsp90α): no eluted protein was detected

C=CCNC1=C2C[C@@H](C)C[C@H](OC)[C@H](O)[C@@H](C)/C=C(\C)[C@H](OC(N)=O)[C@@H](OC)/C=C\C=C(/C)C(=O)NC(=CC1=O)C2=O [Peptide 17-AAG, 17-(allylamino)-17-desmethoxygeldanamycin]
water / aqueous solubility [1]: limited aqueous solubility | hepatotoxicity [2]: reduced hepatotoxicity

CYSLPGYLASSILGA (peptide corresponding to the C-terminus of an otoferlin isoform with di-lysine replaced by di-serine) [672 BC1, E47 peptide control with the di-lysine replaced with di-serine, reference compound]
amount of beta-COP bound by the di-serine control relative to the parent di-lysine peptide matrix (beta-COP): about half

COC1=C2C[C@@H](C)C[C@H](OC)[C@H](O)[C@@H](C)/C=C(\C)[C@H](OC(N)=O)[C@@H](OC)/C=C\C=C(/C)C(=O)NC(=CC1=O)C2=O [geldanamycin]
water / aqueous solubility [1]: poor water solubility | hepatotoxicity [2]: hepatotoxicity

CYSLPGYMVKKLLGA (also: coupled to Sulfolink matrix) [OTOF CTERM E48, C-terminus 14 amino acids of the cochlear otoferlin isoform with added N-terminal cysteine, coupled to Sulfolink matrix]
binding of a protein at approximately 97 kilo-daltons (p97, Hsp90α) to the peptide matrix (Hsp90α (p97, HS9A_MOUSE)): higher levels | binding of a protein at approximately 97 kilo-daltons (p97, Hsp90α) to the peptide matrix (Hsp90α (p97, HS9A_MOUSE); listed as E48): specific binding | amount of beta-COP binding the peptide matrix (beta-COP): similar | amount of beta-COP binding the peptide matrix (beta-COP; listed as E48): specific binding | binding of Hsp90α to the peptide affinity column (recombinant human Hsp90α): specifically binds | protein corresponding to Hsp90 molecular weight eluted with 600 mM NaCl, share of protein added (recombinant human Hsp90α): Approximately 10%

CYSLPGYMVSSLLGA (peptide corresponding to the C-terminus of an otoferlin isoform with di-lysine replaced by di-serine) [670 CC1, E48 peptide control with the di-lysine replaced with di-serine, reference compound]
amount of beta-COP bound by the di-serine control relative to the parent di-lysine peptide matrix (beta-COP): about a tenth
